# Literature values, collected in patent US20240101656A1, “PLK1 INHIBITOR IN COMBINATION WITH ANTI-ANGIOGENICS FOR TREATING METASTATIC CANCER” (CARDIFF ONCOLOGY, INC., priority 2022, published 2024).
# Read-outs that look alike come from different tables or passages of the source.
# What was measured:
# AML = details: in combination with LDAC
# [1] = system: patients with AML who were treatment naïve yet unsuitable for induction therapy; details: intravenously, in combination with LDAC
# [2] = system: HT29 human colon adenocarcinoma xenografts; details: combination therapy with irinotecan
# [3] = system: disseminated models of AML
# [4] = system: patients with advanced/metastatic solid tumors
# xenograft tumor = details: well tolerated doses, oral administration
# xenograft models of AML = details: in vivo
# PLK1 = PLK1 (Homo sapiens, UniProt P53350)
# PLK1, sequence (P53350 whole entry): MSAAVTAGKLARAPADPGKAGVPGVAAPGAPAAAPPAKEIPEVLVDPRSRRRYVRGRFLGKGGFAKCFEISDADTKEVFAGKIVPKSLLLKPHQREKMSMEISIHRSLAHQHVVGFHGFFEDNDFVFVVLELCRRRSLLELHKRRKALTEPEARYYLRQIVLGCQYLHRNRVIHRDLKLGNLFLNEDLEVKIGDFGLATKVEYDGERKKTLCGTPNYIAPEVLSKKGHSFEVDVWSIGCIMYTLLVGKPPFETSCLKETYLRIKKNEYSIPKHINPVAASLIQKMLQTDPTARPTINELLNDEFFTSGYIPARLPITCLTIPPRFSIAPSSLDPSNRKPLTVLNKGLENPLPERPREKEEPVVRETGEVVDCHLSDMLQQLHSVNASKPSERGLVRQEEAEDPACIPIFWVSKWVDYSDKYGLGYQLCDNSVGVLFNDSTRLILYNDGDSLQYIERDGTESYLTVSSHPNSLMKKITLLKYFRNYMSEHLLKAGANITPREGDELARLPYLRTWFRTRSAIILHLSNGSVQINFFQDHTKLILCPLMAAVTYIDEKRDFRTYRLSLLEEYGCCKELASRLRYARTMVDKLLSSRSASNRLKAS
# [5] = in vivo
# [6] = system: cell lines, both from solid as well as hematologic tumors
# [7] = 2nd line
molecule,measurement,setting,value
CC[C@@H]1C(=O)N(C)c2cnc(Nc3ccc(C(=O)N[C@H]4CC[C@H](N5CCN(CC6CC6)CC5)CC4)cc3OC)nc2N1C(C)C [volasertib (BI6727)],benefit of the combination,AML,no benefit
same,risk of severe infections,AML,increased risk of severe infections
same,OS compared with LDAC alone,[1],significant increase in OS
"CN1CCN(c2ccc(OC(F)(F)F)c(Nc3ncc4c(n3)-c3c(c(C(N)=O)nn3CCO)CC4)c2)CC1 [onvansertib, 1-(2-hydroxyethyl)-8-{[5-(4-methylpiperazin-1-yl)-2-(trifluoromethoxy)phenyl]amino}-4,5-dihydro-1H-pyrazolo[4,3-h]quinazoline-3-carboxamide]",tumor regression compared to each agent alone,[2],enhanced tumor regression
same,survival of animals,[3]; combination therapy with cytarabine,prolonged survival
same,cytarabine antitumor activity,[3]; in combination with cytarabine,significantly increased
same,cell-cycle effect,cancer cell lines,mitotic cell-cycle arrest followed by apoptosis
same,primary dose-limiting toxicities,[4]; in vivo,neutropenia and thrombocytopenia
same,recovery from hematologic toxicities,[4]; reversible,≤ 3 weeks
same,xenograft tumor growth,xenograft tumor,inhibits xenograft tumor growth
same,tumor growth,xenograft models of AML,inhibited
same,concentrations inhibiting cell proliferation,AML cell lines,nanomolar concentrations
same,"specificity for PLK1 among a panel of 296 kinases, including other PLK members",PLK1,high specificity
same,oral bioavailability,[5],good oral bioavailability
same,activity in proliferation assays,[6],low nanomolar activity
"bev: anti-angiogenics; Bevacizumab (also referred to herein as ""bev"")",mOS,[7]; bev naïve,13.9 months
same,mPFS,[7]; bev naïve,6.9 months
same,mOS,[7]; prior bev,12.5 months
same,mPFS,[7]; prior bev,6.7 months
